Columns and labels:
Assay in all cases: normalised viability (% of control), CellTiter-Blue; higher = more viable cells (about 100 = DMSO control)
Settings in all cases: incubation time: 72 h
SK-BR-3 = tested on: SK-BR-3
How it was run: (§1)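 Seeded at 20 µl suspension per well onto compound-loaded 384-well plates, breast cancer cell lines were incubated 72 h. CellTiter-Blue fluorescence at 560/590 nm was then read, with each plate normalised to vehicle (100) and a positive kill control (0). Normalised viability is reported at a single listed concentration of the series.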

BT-549 = tested on: BT-549
How it was run: as §1

DU-4475 = tested on: DU-4475
How it was run: as §1

CAL-51 = tested on: CAL-51
How it was run: as §1

CAL-148 = tested on: CAL-148
How it was run: as §1

HCC1937 = tested on: HCC1937
How it was run: as §1

BT-474 = tested on: BT-474
How it was run: as §1

CAL-85-1 = tested on: CAL-85-1
How it was run: as §1

MDA-MB-231 = tested on: MDA-MB-231
How it was run: as §1

HCC1143 = tested on: HCC1143
How it was run: as §1

MDA-MB-436 = tested on: MDA-MB-436
How it was run: as §1

Hs578T = tested on: Hs578T
How it was run: as §1

HCC1599 = tested on: HCC1599
How it was run: as §1

MFM-223 = tested on: MFM-223
How it was run: as §1

MDA-MB-453 = tested on: MDA-MB-453
How it was run: as §1

CAL-120 = tested on: CAL-120
How it was run: as §1

HDQ-P1 = tested on: HDQ-P1
How it was run: as §1

CC(C)(C)c1cnc(CSc2cnc(NC(=O)C3CCNCC3)s2)o1 [SNS-032]
normalised viability [%]
Settings	3 nM	10 nM	30 nM	100 nM	1000 nM	10000 nM
BT-474	–	119	–	–	26.5	35
BT-549	–	94.8	–	–	11.6	9.46
CAL-51	113	–	107	107	–	–
CAL-85-1	88.8	–	78.5	70.1	–	–
CAL-120	–	84.1	–	–	12.9	11.8
CAL-148	91.9	–	99.5	77.1	–	–
DU-4475	101	–	86.9	87.5	–	–
HCC1143	–	79.7	–	–	17.5	16.6
HCC1599	–	113	–	–	17.4	22.4
HCC1937	–	138	–	–	23.1	17.1
HDQ-P1	113	–	93.5	63	–	–
Hs578T	–	104	–	–	5.65	4
MDA-MB-231	–	106	–	–	8.24	7.03
MDA-MB-436	–	105	–	–	16.2	15.1
MDA-MB-453	118	–	92.7	70.8	–	–
MFM-223	–	87.9	–	–	14.2	20
SK-BR-3	–	98.4	–	–	5.34	4.75

Nc1ncn([C@@H]2O[C@H](CO)[C@@H](O)[C@H]2O)c(=O)n1 [Azacitidine]
normalised viability [%]
Settings	3 nM	10 nM	30 nM	100 nM	1000 nM	10000 nM
BT-474	–	104	–	–	102	95
BT-549	–	115	–	–	95.4	48.7
CAL-51	102	–	104	104	–	–
CAL-85-1	98.5	–	97.8	92.6	–	–
CAL-120	–	80.9	–	–	88.9	60.9
CAL-148	83.8	–	85.2	89.3	–	–
DU-4475	97.2	–	116	117	–	–
HCC1143	–	72.6	–	–	83.8	62.3
HCC1599	–	111	–	–	72.8	88.4
HCC1937	–	94	–	–	74.4	56.9
HDQ-P1	141	–	104	96	–	–
Hs578T	–	98.4	–	–	90.2	36
MDA-MB-231	–	81.1	–	–	85.4	69.9
MDA-MB-436	–	114	–	–	86.3	70.3
MDA-MB-453	104	–	109	102	–	–
MFM-223	–	100	–	–	95.5	59.4
SK-BR-3	–	92	–	–	106	66.6
